Measurements from patent US20090110727A1, “Extended release compositions of proton pump inhibitors” (Eisai R & D management Co., Ltd., priority 2004, published 2009).

Assay: Osmotic pressure of saturated solutions by vapor pressure osmometer
Assay type: physicochemical
Details: for Osmotic Pressure in atm.: saturated solutions at 37° C., in water
Procedure: The osmotic solute may be initially present in excess and it can be in any physical form that is compatible with the proton pump inhibitor, the dosage form, and the osmopolymer. […] In the table, the osmotic pressure π, is in atmospheres, atm. The osmotic pressure is measured in a commercially available osmometer that measures the vapor pressure difference between pure water and the solution to be analyzed and, according to standard thermodynamic principles, the vapor pressure ratio is converted into osmotic pressure difference. […] The osmometer used for the present measurements is identified as Model 320B, Vapor Pressure Osmometer, manufactured by the Hewlett Packard Co., Avondale, Pa.

Compound	Osmotic Pressure in atm. [atm]	π value (osmotic pressure) (Hewlett Packard vapor pressure osmometer, ±10%) [atm]
[Cl-].[Na+] [Sodium Chloride]	356	345
OC[C@@H](O)[C@@H](O)[C@H](O)[C@H](O)CO [Mannitol]	38	
[Cl-].[K+] [Potassium Chloride]	245	
O=S(=O)([O-])[O-].[K+].[K+] [Potassium Sulfate]	39	
O=C(CO)[C@@H](O)[C@H](O)[C@H](O)CO [Fructose]	355	

Further lines, with some results ahead:

Osmotic Pressure in atm. [atm]	Compound	π value (osmotic pressure) (Hewlett Packard vapor pressure osmometer, ±10%) [atm]
28	Sodium Phosphate Monobasic H2O	
29	O=P([O-])([O-])O.[Na+].[Na+] [Sodium Phosphate Dibasic Anhydrous]	
31	O.O.O.O.O.O.O.O.O.O.O.O.O=P([O-])([O-])O.[Na+].[Na+] [Sodium Phosphate Dibasic 12 H2O]	
31	O.O.O.O.O.O.O.O=P([O-])([O-])O.[Na+].[Na+] [Sodium Phosphate Dibasic 7 H2O]	
36	O.O.O.O.O.O.O.O.O.O.O.O.O=P([O-])([O-])[O-].[Na+].[Na+].[Na+] [Sodium Phosphate Tribasic 12 H2O]	
